# According to patent publication US12485121B2, “Antiviral agents for the treatment and prevention of HIV infection” (Pharmasyntez, Joint Stock Company, priority 2020, dated 2025):
# Tested on: HIV-1 subtype A strain 12RU 69831
# Experiment: Inhibition of HIV-1 reproduction / protection of infected MT-4 cells (living cell concentration, p24 production)
# Assay type: cell-based
# Settings: Human immunodeficiency virus 1, MT4, MT-4 cells infected with HIV-1 at a constant virus dose of 300 CCID50; read-out: Activity against HIV-1 12RU 69831 strain (subtype A)
# Protocol: Evaluation of HIV reproduction inhibition/protection of human cells by anti-HIV products of the present invention was conducted by measuring change in living cells concentration in experimental wells with MT-4 cells infected with HIV-1, as well as by the production of viral protein p24 with adding different concentrations of compounds according to the present invention. Antiviral activity of products against HIV-1 subtype A strain 12RU 69831 was determined, when the cell culture was infected with a constant dose of virus, corresponding to 300 CCID50.
row,IC50,SMILES
1,57.4 µM,Cc1ccc(CN2CCc3nc(Nc4ccc(C#N)cc4)nc(Oc4c(C)cc(C#N)cc4C)c3CC2)o1 [BB0274073]
2,83.3 µM,Cc1cc(C#N)cc(C)c1Oc1nc(Nc2ccc(C#N)cc2)nc2c1CCN(Cc1cccn1C)CC2 [BB0274074]
3,5.8 µM,"Cc1cc(C#N)cc(C)c1Oc1nc(Nc2ccc(C#N)cc2)nc2c1CCN(Cc1ccc(O)cc1)CC2 [BB0274075, 4-((2-((4-Cyanophenyl)amino)-7-(4-hydroxybenzyl)-6,7,8,9-tetrahydro-5H-pyrimido[4,5-d]azepine-4-yl)oxy)-3,5-dimethylbenzonitrile]"
4,0.414 µM,COCC(C)N1CCc2nc(Nc3ccc(C#N)cc3)nc(Oc3c(C)cc(C#N)cc3C)c2CC1 (stereo not shown) [BB0274080]
5,664 µM,"Cc1cc(C#N)cc(C)c1Oc1nc(Nc2ccc(C#N)cc2)nc2c1CN(C(=O)C1CCCN1C(=O)OC(C)(C)C)CC2 (stereo not shown) [BB0274097, Tert-butyl 2-(4-(4-cyano-2,6-dimethylphenoxy)-2-((4-cyanophenyl)amino)-5,6,7,8-tetrahydropyrido[4,3-d]pyrimidine-6-carbonyl)pyrrolidine-1-carboxylate]"
6,0.046 µM,"Cc1cc(C#N)cc(C)c1Oc1nc(Nc2ccc(C#N)cc2)nc2c1CN(C(=O)C1CCCN1)CC2 (stereo not shown) [BB0274098, 4-((2-((4-Cyanophenyl)amino)-6-(pyrrolidine-2-carbonyl)-5,6,7,8-tetrahydropyrido[4,3-d]pyrimidine-4-yl)oxy)-3,5-dimethylbenzonitrile]"
7,0.152 µM,"Cc1cc(C#N)cc(C)c1Oc1nc(Nc2ccc(C#N)cc2)nc2c1CN(C(=O)C1CNC1)CC2 [BB0274099, 4-((6-(Azetidine-3-carbonyl)-2-((4-cyanophenyl)amino)-5,6,7,8-tetrahydropyrido[4,3-d]pyrimidine-4-yl)oxy)-3,5-dimethylbenzonitrile]"
8,33.8 µM,"Cc1cc(C#N)cc(C)c1Oc1nc(Nc2ccc(C#N)cc2)nc2c1CN(C(=O)c1cnccn1)CC2 [BB0274100, 4-((2-((4-Cyanophenyl)amino)-6-(pyrazine-2-carbonyl)-5,6,7,8-tetrahydropyrido[4,3-d]pyrimidine-4-yl)oxy)-3,5-dimethylbenzonitrile]"
9,8.8 µM,"Cc1cc(C#N)cc(C)c1Oc1nc(Nc2ccc(C#N)cc2)nc2c1CN(C(=O)[C@H](C)NC(=O)OC(C)(C)C)CC2 [BB0274101, (S)-Tert-butyl (1-(4-(4-cyano-2,6-dimethylphenoxy)-2-((4-cyanophenyl)amino)-7,8-dihydropyrido[4,3-d]pyrimidine-6(5H)-yl)-1-oxopropane-2-yl)carbamate]"
10,0.00341 µM,"Cc1cc(C#N)cc(C)c1Oc1nc(Nc2ccc(C#N)cc2)nc2c1CN(C(=O)[C@H](C)N)CC2 [BB0274102, (S)-4-((6-(2-Aminopropanoyl)-2-((4-cyanophenyl)amino)-5,6,7,8-tetrahydropyrido[4,3-d]pyrimidine-4-yl)oxy)-3,5-dimethylbenzonitrile]"
11,228 µM,"Cc1cc(C#N)cc(C)c1Oc1nc(Nc2ccc(C#N)cc2)nc2c1CN(C(=O)[C@H](Cc1ccccc1)NC(=O)OC(C)(C)C)CC2 [BB0274103, (S)-Tert-butyl (1-(4-(4-cyano-2,6-dimethylphenoxy)-2-((4-cyanophenyl)amino)-7,8-dihydropyrido[4,3-d]pyrimidine-6(5H)-yl)-1-oxo-3-phenylpropane-2-yl)carbamate]"
12,533 µM,"Cc1cc(C#N)cc(C)c1Oc1nc(Nc2ccc(C#N)cc2)nc2c1CN(C(=O)[C@@H](N)Cc1ccccc1)CC2 [BB0274111, (S)-4-((6-(2-Amino-3-phenylpropanoyl)-2-((4-cyanophenyl)amino)-5,6,7,8-tetrahydropyrido[4,3-d]pyrimidine-4-yl)oxy)-3,5-dimethylbenzonitrile]"
13,0.324 µM,"Cc1cc(C#N)cc(C)c1Oc1nc(Nc2ccc(C#N)cc2)nc2c1CCN(CCN1CCOCC1)CC2 [BB0274118, 4-((2-((4-Cyanophenyl)amino)-7-(2-morpholineethyl)-6,7,8,9-tetrahydro-5H-pyrimido[4,5-d]azepine-4-yl)oxy)-3,5-dimethylbenzonitrile]"
14,103 µM,"Cc1cc(C#N)cc(C)c1Oc1nc(Nc2ccc(C#N)cc2)nc2c1CN(C(=O)[C@@H](CO)NC(=O)OC(C)(C)C)CC2 [BB0274119, (R)-Tert-butyl (1-(4-(4-cyano-2,6-dimethylphenoxy)-2-((4-cyanophenyl)amino)-7,8-dihydropyrido[4,3-d]pyrimidine-6(5H)-yl)-3-hydroxy-1-oxopropane-2-yl)carbamate]"
15,108 µM,"CSCCC(NC(=O)OC(C)(C)C)C(=O)N1CCc2nc(Nc3ccc(C#N)cc3)nc(Oc3c(C)cc(C#N)cc3C)c2C1 (stereo not shown) [BB0274120, Tert-butyl (1-(4-(4-cyano-2,6-dimethylphenoxy)-2-((4-cyanophenyl)amino)-7,8-dihydropyrido[4,3-d]pyrimidine-6(5H)-yl)-4-(methylthio)-1-oxobutane-2-yl)carbamate]"
16,18.7 µM,"Cc1cc(C#N)cc(C)c1Oc1nc(Nc2ccc(C#N)cc2)nc2c1CN(C(=O)C(N)Cc1cn[nH]c1)CC2 (stereo not shown) [BB0274121, 4-((6-(2-Amino-3-(1H-pyrazole-4-yl)propanoyl)-2-((4-cyanophenyl)amino)-5,6,7,8-tetrahydropyrido[4,3-d]pyrimidine-4-yl)oxy)-3,5-dimethylbenzonitrile]"
17,2.07 µM,"Cc1cc(C#N)cc(C)c1Oc1nc(Nc2ccc(C#N)cc2)nc2c1CN(C(=O)[C@H](N)CO)CC2 [BB0274123, (R)-4-((6-(2-Amino-3-hydroxypropanoyl)-2-((4-cyanophenyl)amino)-5,6,7,8-tetrahydropyrido[4,3-d]pyrimidine-4-yl)oxy)-3,5-dimethylbenzonitrile]"
18,342 µM,"Cc1cc(C#N)cc(C)c1Oc1nc(Nc2ccc(C#N)cc2)nc2c1CN(C(=O)[C@H](Cc1ccc(O)cc1)NC(=O)OC(C)(C)C)CC2 [BB0274124, (S)-Tert-butyl (1-(4-(4-cyano-2,6-dimethylphenoxy)-2-((4-cyanophenyl)amino)-7,8-dihydropyrido[4,3-d]pyrimidine-6(5H)-yl)-3-(4-hydroxyphenyl)-1-oxopropane-2-yl)carbamate]"
19,82.1 µM,"Cc1cc(C#N)cc(C)c1Oc1nc(Nc2ccc(C#N)cc2)nc2c1CN(C(=O)[C@@H](N)Cc1ccc(O)cc1)CC2 [BB0274125, (S)-4-((6-(2-Amino-3-(4-hydroxyphenyl)propanoyl)-2-((4-cyanophenyl)amino)-5,6,7,8-tetrahydropyrido[4,3-d]pyrimidine-4-yl)oxy)-3,5-dimethylbenzonitrile]"
20,45.3 µM,"Cc1cc(C#N)cc(C)c1Oc1nc(Nc2ccc(C#N)cc2)nc2c1CN(C(=O)[C@H](NC(=O)OC(C)(C)C)C(C)C)CC2 [BB0274126, (R)-Tert-butyl (1-(4-(4-cyano-2,6-dimethylphenoxy)-2-((4-cyanophenyl)amino)-7,8-dihydropyrido[4,3-d]pyrimidine-6(5H)-yl)-3-methyl-1-oxobutane-2-yl)carbamate]"
21,12.1 µM,"Cc1cc(C#N)cc(C)c1Oc1nc(Nc2ccc(C#N)cc2)nc2c1CN(C(=O)[C@H](N)C(C)C)CC2 [BB0274127, (R)-4-((6-(2-Amino-3-methylbutanoyl)-2-((4-cyanophenyl)amino)-5,6,7,8-tetrahydropyrido[4,3-d]pyrimidine-4-yl)oxy)-3,5-dimethylbenzonitrile]"
22,113 µM,"Cc1cc(C#N)cc(C)c1Oc1nc(Nc2ccc(C#N)cc2)nc2c1CN(C(=O)[C@H](CC(C)C)NC(=O)OC(C)(C)C)CC2 [BB0274128, (S)-Tert-butyl (1-(4-(4-cyano-2,6-dimethylphenoxy)-2-((4-cyanophenyl)amino)-7,8-dihydropyrido[4,3-d]pyrimidine-6(5H)-yl)-4-methyl-1-oxopentane-2-yl)carbamate]"
23,1.04 µM,"Cc1cc(C#N)cc(C)c1Oc1nc(Nc2ccc(C#N)cc2)nc2c1CN(C(=O)[C@@H](N)CC(C)C)CC2 [BB0274129, (S)-4-((6-(2-Amino-4-methylpentanoyl)-2-((4-cyanophenyl)amino)-5,6,7,8-tetrahydropyrido[4,3-d]pyrimidine-4-yl)oxy)-3,5-dimethylbenzonitrile]"
24,240 µM,"Cc1cc(C#N)cc(C)c1Oc1nc(Nc2ccc(C#N)cc2)nc2c1CN(C(=O)[C@H](CCCCNC(=O)OC(C)(C)C)NC(=O)OC(C)(C)C)CC2 [BB0274130, (S)-Di-tert-butyl (6-(4-(4-cyano-2,6-dimethylphenoxy)-2-((4-cyanophenyl)amino)-7,8-dihydropyrido[4,3-d]pyrimidine-6(5H)-yl)-6-oxohexane-1,5-diyl)dicarbamate]"
25,0.667 µM,"Cc1cc(C#N)cc(C)c1Oc1nc(Nc2ccc(C#N)cc2)nc2c1CN(C(=O)[C@@H](N)CCCCN)CC2 [BB0274131, (S)-4-((2-((4-Cyanophenyl)amino)-6-(2,6-diaminohexanoyl)-5,6,7,8-tetrahydropyrido[4,3-d]pyrimidine-4-yl)oxy)-3,5-dimethylbenzonitrile]"
26,0.909 µM,"CSCC[C@H](N)C(=O)N1CCc2nc(Nc3ccc(C#N)cc3)nc(Oc3c(C)cc(C#N)cc3C)c2C1 [BB0274132, 4-((2-((4-cyanophenyl)amino)-6-methionyl-5,6,7,8-tetrahydropyrido[4,3-d]pyrimidin-4-yl)oxy)-3,5-dimethylbenzonitrile]"

row,SMILES,IC50
1,"Cc1cc(C#N)cc(C)c1Oc1nc(Nc2ccc(C#N)cc2)nc2c1CCN(CC#N)CC2 [BB0274095, 4-((7-(cyanomethyl)-2-((4-cyanophenyl)amino)-6,7,8,9-tetrahydro-5H-pyrimido[4,5-d]azepine-4-yl)oxy)-3,5-dimethylbenzonitrile]",11.3 µM
2,"Cc1cc(C#N)cc(C)c1Oc1nc(Nc2ccc(C#N)cc2)nc2c1CN(C(=O)C(Cc1cnn(C(=O)OC(C)(C)C)c1)NC(=O)OC(C)(C)C)CC2 (stereo not shown) [BB0274122, Tert-butyl 4-(2-((tert-butoxycarbonyl)amino)-3-(4-(4-cyano-2,6-dimethylphenoxy)-2-((4-cyanophenyl)amino)-7,8-dihydropyrido[4,3-d]pyrimidine-6(5H)-yl)-3-oxopropyl)-1H-pyrazole-1-carboxylate]",18.9 µM
